Values quoted from earlier work in US7947467B2, “Methods for monitoring pathological conditions in a subject” (Common Sense Ltd., priority 2001, dated 2011).

Assays:
[1] = in aqueous solution

Row | Compound | aqueous pH transition range | pKa [1]
1 | O=S1(=O)OC(c2ccc(O)c(Cl)c2)(c2ccc(O)c(Cl)c2)c2ccccc21 [Chlorophenol Red] | 5.2-8.8 | –
2 | Cc1cc(C2(c3cc(C)c(O)cc3C)OS(=O)(=O)c3ccccc32)c(C)cc1O [Xylenol Blue] | 8.0-9.6 | –
3 | O=C1c2ccccc2C(=O)c2c1ccc(O)c2O [Alizarin] | 5.5-6.8 | –
4 | Cc1cc(C2(c3cc(C)c(O)c(Br)c3C)OS(=O)(=O)c3ccccc32)c(C)c(Br)c1O [Bromoxylenol Blue] | 6.0-7.6 | –
5 | Cc1cc(O)c(C(C)C)cc1C1(c2cc(C(C)C)c(O)cc2C)OS(=O)(=O)c2ccccc21 [Thymol Blue] | 8.0-9.2 | –
6 | Cc1cc(O)ccc1C1(c2ccc(O)cc2C)OS(=O)(=O)c2ccccc21 [m-Cresol purple] | 7.4-9.0 | –
7 | Nitrazine Yellow | 6.0-7.2 | 6.6
8 | Cc1c(C2(c3cc(C(C)C)c(O)c(Br)c3C)OS(=O)(=O)c3ccccc32)cc(C(C)C)c(O)c1Br [Bromthymol Blue] | 6.0-7.6 | –
9 | Cc1cc2nc3ccc(N(C)C)cc3nc2cc1N.Cl [Neutral Red] | 6.8-8.0 | –
10 | Cc1cc(C2(c3ccc(O)c(C)c3)OS(=O)(=O)c3ccccc32)ccc1O [Cresol Red] | 7.2-8.8 | –
11 | Cc1cc(C2(c3cc(C)c(O)c(Br)c3)OS(=O)(=O)c3ccccc32)cc(Br)c1O [Bromcresol Purple] | 5.2-6.8 | –
